Measurements published in ChEMBL document CHEMBL1157539, “Thousands of chemical starting points for antimalarial lead identification” (Nature, 2010).

System: Plasmodium falciparum
Experiment: GSK_TCMDC: Inhibition of Plasmodium falciparum 3D7 in whole erythrocytes, using parasite LDH activity as an index of growth.
Format: functional, organism-based
Conditions: Plasmodium falciparum, 3D7

Row | Structure (SMILES) | XC50 [nM]
1 | O=C([C@H]1CCCCN1c1ccc([N+](=O)[O-])c2ccccc12)N1CCN(c2ncccn2)CC1 | 199
2 | CCC(CC)n1c(C)cc2c3c(N)nc(N)nc3ccc21 | 3.2
3 | Cc1ccc(Cn2ccc3c4c(N)nc(N)nc4ccc32)cc1 | 3.2
4 | CC1CN(c2ccc(NC(=O)c3cccs3)cc2)CCN1Cc1cccc(F)c1 (stereo not drawn) | 492
5 | CN1CCCN(Cc2cccc(-c3ccc(NC(=O)c4cccc(C#N)c4)cc3)c2)CC1 | 723
6 | O=C(Nc1ccc(-c2cccc(CN3CCC(O)CC3)c2)cc1)c1cccc(Cl)c1 | 826
7 | CC(C)c1ccc(NC(=O)c2ccc(NCCCN(C)Cc3ccccc3)c([N+](=O)[O-])c2)cc1 | 683
8 | CCC(C)c1cnc2nc(N)nc(N)c2c1C (stereo not drawn) | 444
9 | Cn1c(N)c(C(=O)CSc2nnc(-c3cccs3)n2Cc2ccccc2)c(=O)n(C)c1=O | 792
10 | CCOC(=O)c1c(CSc2ccccc2)oc2cc(CN(C)C)c(O)c(Cl)c12 | 657
11 | CC[C@H]1CN2CC[C@H]1C[C@H]2[C@H](O)c1cc(-c2ccc(F)cc2)nc2ccc(OC)cc12 | 49.7
12 | COc1ccc(NC(=O)CCNc2cc(C)nc(NCc3ccccc3C)n2)cc1 | 1070
13 | Cc1ccc(C2(CN3CCC(NC(=O)c4cc[nH]n4)CC3)CCCCC2)cc1 | 225
14 | CC[C@H]1CN2CC[C@H]1C[C@H]2[C@H](O)c1cc(-c2ccc(C)cc2)nc2ccc(OC)cc12 | 109
15 | Nc1nccc2ccc(Oc3ccncc3)cc12 | 481
16 | CN1CC[C@@H](Oc2cc(NC(=O)Nc3ccccc3Br)ccc2Cl)C1 | 1100
17 | O=C(Nc1ccc2c(c1)CN(Cc1ccc(N3CCCC3)o1)CCC2)c1ccoc1 | 953
18 | N#Cc1ccccc1C(=O)N(Cc1cncn1Cc1cccc(F)c1)CC1CC1 | 734
19 | O=C(/C=C/c1ccc(Cl)c(Cl)c1)NC1CCC(CN2CCC(c3c[nH]c4ccncc34)CC2)CC1 (stereo not drawn) | 398
20 | CCCCN(CCCC)CCNC(=O)c1ccc(-c2nc3cc(Cl)ccc3[nH]2)c(OCC)c1 | 570
21 | Cc1cccc2nc(-c3ccc(-c4ccc(NC(=O)Nc5ccc(Cl)c(Cl)c5)cc4)cc3)[nH]c12 | 826
22 | O=C(c1cccc(-c2noc(C(F)(F)F)n2)c1)N1CCN(C(=O)c2ccc3cc[nH]c3c2)CC1 | 107
23 | Cc1cccc2nc(-c3cccc(-c4cccc(CNCc5ccccc5)c4)c3)[nH]c12 | 393
24 | CCCN1CC[C@@H](CCCc2ccnc3ccc(O)cc23)[C@@H](CC)C1 | 889
25 | CCCNCc1ccc(-c2ccc(CN(Cc3cnc(C)cn3)C(=O)/C=C/c3ccccc3C)cc2)nc1 | 919

Row | Structure (SMILES) | XC50 [nM]
26 | CCC(CC)OC(=O)C(C)c1cccc(C(=O)c2ccccc2)c1 (stereo not drawn) | 833
27 | CCC(=O)N(c1ccccc1)C1CCN(CCCC(NC(=O)c2cc(C(F)(F)F)cc(C(F)(F)F)c2)c2ccc(Cl)c(Cl)c2)CC1 (stereo not drawn) | 803
28 | COc1ccc(Cl)cc1NC(=O)CN(C)C(=O)c1cnn(-c2ccccc2)n1 | 228
29 | CCC(CCON1C(N)=NC(N)=NC1(C)C)c1ccc(Cl)cc1 (stereo not drawn) | 3.2
30 | CCN(CC)S(=O)(=O)c1ccc(C(C)NC(=O)c2ccccc2COc2ccccc2)cc1 (stereo not drawn) | 330
31 | O=c1cc(NCCNCc2cccc(-c3ccccc3)c2)[nH]c2ccccc12 | 1030
32 | CCn1c(-c2cc(C)on2)nc2cnc(Oc3ccc(C(=O)N4CC(=O)N(C)C4C(C)(C)C)cc3)cc21 (stereo not drawn) | 1820
33 | Cc1cccc(Nc2nccc(Nc3cccc(C(=O)NCCN4CCOCC4)c3)n2)c1 | 1420
34 | N#Cc1cncc(-c2nc3c(N4CCCC(N)C4)cccc3n2CCNCc2ccccc2)c1 (stereo not drawn) | 768
35 | CCN(CC)CCCNc1ncc2c(-c3ccc(NC(=O)Nc4cc(C(F)(F)F)ccc4F)cc3)nn(C)c2n1 | 220
36 | COc1cc2ncnc(Nc3ccc4nc(-c5ccccc5)[nH]c4c3)c2cc1OC | 443
37 | COc1ccc(NC(=O)[C@H](CC(C)C)Nc2cc(C)nc(NCCc3ccc(F)cc3)n2)cc1 | 925
38 | COc1cc2nccc(Nc3cc(C)cc(O)c3)c2cc1OC | 905
39 | CN1CCN(CCCN(Cc2csc(-c3ccc(CNCc4ccccc4)cc3)n2)S(=O)(=O)c2ccccc2Cl)CC1 | 876
40 | O=C(NC1CCCc2ccccc21)[C@@H]1CCCN1C(=O)c1ccc(O)c(-c2cccc([N+](=O)[O-])c2)c1 (stereo partly drawn) | 678
41 | OCC1CCN(Cc2ccc(-c3ccc(-c4nc5ccccc5[nH]4)cc3)cc2)CC1 | 898
42 | CNC(=O)c1ccccc1Nc1nc(Nc2cccnc2)ncc1C | 101
43 | CC(C)=CCN1CCC(C(=O)Nc2ccc(-c3nc4ccccc4[nH]3)cc2)CC1 | 908
44 | Nc1nc2ccc(S(=O)(=O)Nc3ccc(C(=O)N[C@@H](CCC(=O)O)C(=O)O)c(F)c3)cc2c(=O)[nH]1 | 824
45 | CC1(C)NC(=N)N=C(NOCC=Cc2ccccc2)N1 | 227
46 | ON=C(c1nc2ccccc2[nH]1)c1nc2ccccc2[nH]1 | 1090
47 | Oc1ccccc1CN(CCCN(Cc1ccccn1)Cc1ccccc1O)Cc1ccccn1 | 1060
48 | Cc1nc(C)c(-c2ccc(Oc3cc(Cl)cc(Cl)c3)cc2)c(O)c1Br | 242
49 | NCc1ccc(CNCc2cccc(-c3ccc(-c4nc5cc(C(F)(F)F)ccc5[nH]4)cc3)c2)cc1 | 261
50 | O=C(CNC(=O)c1ccc(O)cc1)Nc1cccc(-c2cccc(-c3nc4cc(C(F)(F)F)ccc4[nH]3)c2)c1 | 1040

Row | Structure (SMILES) | XC50 [nM]
51 | CC(=O)c1cccc2[nH]c(C(=O)NC3CCC(CCN4CCc5ccc(C#N)cc5C4)CC3)cc12 (stereo not drawn) | 842
52 | CCCCSc1ccc(CNCCCCCCNCc2ccc(SCCCC)c3ccccc23)c2ccccc12 | 631
53 | CC(Cc1ccc(OCCN2CCN(c3ccccc3)CC2)cc1)NCC(O)c1cccc(Cl)c1F (stereo not drawn) | 873
54 | CC1N=C(N)N=C(N)N1OCc1ccccc1 (stereo not drawn) | 32.9
55 | O=C(Nc1cccc(-c2nn3ccccc3c2-c2ccnc(Nc3ccc(-c4cc[nH]n4)cc3)n2)c1)c1c(F)cccc1F | 189
56 | CCCCCn1c(Sc2ccc(C#N)c([N+](=O)[O-])c2)nnc1-c1cccc(Cl)c1 | 768
57 | Cc1ccc(NC(=O)c2ccc(N3CCC(c4ccccc4C)CC3)nc2)cc1 | 1400
58 | CC(=NNC(S)=NC(c1ccccc1)c1ccccc1)c1ccccn1 | 896
59 | COCCSc1nc2scc(C)c2c(=O)n1Cc1cccc(OC)c1 | 912
60 | CCOc1ccc(Br)cc1/C=C/C(=O)Nc1ccc2c(c1)CN(C)CCC2 | 824
61 | Cc1nc2ccc3ccc(CNc4ccc(C(=O)CC(CCC(=O)O)C(=O)O)cc4)cc3c2c(=O)[nH]1 (stereo not drawn) | 35.7
62 | Cn1nc(C(F)(F)F)cc1-c1ccc(C(=O)NC2CCC(CN3CCC(c4c[nH]c5ccccc45)CC3)CC2)s1 (stereo not drawn) | 565
63 | O=C(CNC1CCCCC1)Nc1cccc(C(=O)Nc2cccc(C(F)(F)F)c2)c1 | 416
64 | Cc1ccc(N)cc1-c1nc(NC2CC(C)(C)NC(C)(C)C2)nc2c1ccc(=O)n2-c1c(F)cccc1F | 842
65 | Cc1ccc2cc(NC(=O)CCCCCCCON3C(N)=NC(N)=NC34CCCCC4)ccc2n1 | 92.5
66 | COc1ccc(CNC2CCN(c3ccc(NC(=O)c4cccc(Cl)c4)cc3)CC2)cc1OC | 1020
67 | O=C(Nc1cccc(-c2nn3ccccc3c2-c2ccnc(Nc3cccc(F)c3)n2)c1)c1c(F)ccc(F)c1Cl | 1140
68 | O=[N+]([O-])c1cccc(C(Nc2ccccn2)c2ccc3cccnc3c2O)c1 (stereo not drawn) | 1330
69 | CC(C)C(C)(C#N)NC(=O)CSc1nc2ccc([N+](=O)[O-])cc2s1 (stereo not drawn) | 1030
70 | O=C(Cc1cccnc1)Nc1cccc(-c2cccc(-c3nc4cc(C(F)(F)F)ccc4[nH]3)c2)c1 | 677
71 | Nc1ccc2[nH]cc(C3CCN(CC4CCC(NC(=O)/C=C/c5ccc(Cl)c(Cl)c5)CC4)CC3)c2n1 (stereo not drawn) | 731
72 | CCc1ccc(C2CCN(CCCCNC(=O)c3ccc(-c4ccc(Cl)cc4)cc3)CC2)c(O)c1 | 891
73 | CCCN(CC)CCOC(=O)c1ccccc1 | 739
74 | CN1CCN(CCCN(Cc2ccc(-c3cccc(CNCc4ccc5c(c4)OCO5)c3)cc2)C(=O)NC2CCCCC2)CC1 | 988
75 | Cc1cc(Nc2ccncc2)n2nc(C)c(-c3ccc(Cl)cc3)c2n1 | 157

Row | Structure (SMILES) | XC50 [nM]
76 | COc1ccc(-c2ccc(NC(=O)c3cccc(C#N)c3)cc2)cc1CN1CCCC(C(N)=O)C1 (stereo not drawn) | 863
77 | Nc1nc(N)c2cc3ccc(OCc4ccccc4)cc3nc2n1 | 320
78 | Cc1sc2nc(CN3CCCC3)nc(-n3c(NCCO)nc4ccccc43)c2c1C | 1240
79 | Cc1nccc2c(NC(=O)N[C@@H]3CCN(c4ncc(C(F)(F)F)cc4Br)C3)cccc12 | 364
80 | CC(C)/C(=C(/F)CN1C(=O)C(NC(=O)c2cc3ccccc3[nH]2)C(=O)N(c2ccccc2)c2ccccc21)c1ccccc1 (stereo not drawn) | 697
81 | CCCNC[C@@H](O)[C@H](Cc1ccccc1)NC(=O)c1cc(NCC)cc(N2CCCCS2(=O)=O)c1 | 224
82 | Cc1c(Cc2ccccc2Cl)cnc2nc(N)nc(N)c12 | 7.42
83 | O=c1c2c([nH]c3cc(Cl)ccc13)CCCC2 | 810
84 | O=C(Nc1ccc(-c2nc3ccccc3[nH]2)cc1)C1CCN(Cc2ccccc2)CC1 | 1760
85 | CC1CCCN(S(=O)(=O)c2cc(Br)cc3c2N(C(=O)C2CC2)CC3)C1 (stereo not drawn) | 724
86 | O=C(Nc1cccc(-c2cccc(-c3nc4cc(C(F)(F)F)ccc4[nH]3)c2)c1)c1csnn1 | 238
87 | O=C(NCc1cccnc1)C(c1cc2ccccc2o1)N1CCN(C(c2ccccc2)c2ccccc2)CC1 (stereo not drawn) | 713
88 | O=C(CNC1CCCCC1)c1ccc(O)c(O)c1 | 660
89 | C[C@@H](Oc1cc(-n2cnc3ccc(NC(=O)NC(C)(C)C)cc32)sc1C(N)=O)c1ccccc1Cl | 330
90 | Nc1ncc(-c2ccsc2)c2ccc(-c3cnc[nH]3)cc12 | 573
91 | c1ccc2[nH]c(-c3ccc(-c4ccc(CN5CCCCC5)cc4)cc3)nc2c1 | 750
92 | COc1cc(NC(=O)c2ccc3c(=O)n(Cc4ccccc4)c(=S)[nH]c3c2)cc(OC)c1OC | 743
93 | Cc1ccc(S(=O)(=O)NC2CCN(c3ccnc4cc(Cl)ccc34)C2)cc1 (stereo not drawn) | 621
94 | CCCCCCP(=O)(COc1ccc(CCN(CC(O)COc2cccc3[nH]c(C(N)=O)cc23)CC(O)COc2cccc3[nH]c(C(N)=O)cc23)cc1)OCCCC (stereo not drawn) | 724
95 | O=C(CCc1cccnc1)Nc1cccc(-c2ccc(-c3nc4cc(C(F)(F)F)ccc4[nH]3)s2)c1 | 953
96 | NC(=O)c1ccc(C(=O)Nc2cccc(-c3cccc(-c4nc5cc(C(F)(F)F)ccc5[nH]4)c3)c2)cc1 | 229
97 | COc1ccc(CN2CCC(CNC(C)c3cccc4ccccc34)CC2)cc1 (stereo not drawn) | 175
98 | C=CCc1cccc(OC)c1OCCCON1C(=N)N=C(N)NC1(C)C | 3.2
